Measured values taken from patent US12331026B2 (NiKang Therapeutics, Inc., priority 2022, dated 2025).

Target: T1, CDK2 (Homo sapiens, UniProt P24941)
T1 construct: endogenous in cells; host or cells: OVCAR3 cells
Assay: Phospho-RB measurement in OVCAR3 cells (HTRF phospho-RB S807/811)
Assay type: cell-based
Details: phosphorylation of RB protein at S807/811, HTRF, 24 h compound treatment, 0.3 to 10,000 nM, read-out: pRb (uM)
Protocol: The ability of compounds of Formula (I) to inhibit CDK2 was determined in OVCAR3 cells. Phosphorylation of RB protein at S807/811 were measured using HTRF phospho-RB cellular kits (Cat #64RBS807PEG) from Cisbio.
On Day 1, OVCAR3 cells were seeded into 96-well tissue-culture treated plates at 20,000 cells/well in 200 μL and incubated overnight at 37° C. in CO2 atmosphere. On Day 2, the cells were treated with test compounds at concentrations from 0.3 to 10,000 nM using HP D300 digital dispenser. Twenty-four hours after compound treatment, cell culture media was removed by flicking the plate and tapping the plate against clean paper towel. Immediately 30 μL 1× lysis buffer was supplemented from the kit and the plate was incubated at room temperature on shaker for 30 min. After homogenization by pipetting up and down, 8 μL cell lysate from 96-well cell culture plate was transferred to 384-well small volume white detection plate. 2 μL premixed detection solution was added and the plate was covered with sealer. To prepare the detection solution, d2 conjugated-phospho-RB antibody and Eu-cryptate conjugated phosphor-RB antibody were diluted into detection buffer following manufacturer's instruction.
Detection plates were incubated for 4 h at room temperature and read on ClarioStar (BMG Labtech) in TR-FRET mode ([…]). The TR-FRET ratio (665 nM1/620 nM) was plotted against the compound concentration and normalized to DMSO controls. Half maximal inhibition concentration (IC50) values are calculated with a four-parameter logistic fit using GraphPad Prism (version 8; La Jolla, CA).

Row | Structure (SMILES) | IC50
1 | O=S1(=O)CC2(CC(Nc3nccc(-c4sc(N5C6CCC5COC6)nc4-c4cccc(NS(=O)(=O)c5c(F)cccc5F)c4F)n3)C2)C1 [Example 2, N-(3-(2-(3-oxa-8-azabicyclo[3.2.1]octan-8-yl)-5-(2-((2,2-dioxido-2-thiaspiro[3.3]heptan-6-yl)amino)pyrimidin-4-yl)thiazol-4-yl)-2-fluorophenyl)-2,6-difluorobenzenesulfonamide] | 0.15 µM
2 | O=S1(=O)CC2(CC(Nc3nccc(-c4sc(C56CC(C5)C6)nc4-c4cccc(NS(=O)(=O)c5c(F)cccc5F)c4F)n3)C2)C1 [Example 3, N-(3-(2-(bicyclo[1.1.1]pentan-1-yl)-5-(2-((2,2-dioxido-2-thiaspiro[3.3]heptan-6-yl)amino)pyrimidin-4-yl)thiazol-4-yl)-2-fluorophenyl)-2,6-difluorobenzenesulfonamide] | 0.12 µM
3 | C[C@H]1COC[C@H](C)N1c1nc(-c2cccc(NS(=O)(=O)c3c(F)cccc3F)c2F)c(-c2ccnc(NC3CC4(C3)CS(=O)(=O)C4)n2)s1 [Example 4, N-(3-(2-((3S,5S)-3,5-dimethylmorpholino)-5-(2-((2,2-dioxido-2-thiaspiro[3.3]heptan-6-yl)amino)pyrimidin-4-yl)thiazol-4-yl)-2-fluorophenyl)-2,6-difluorobenzenesulfonamide] | 0.13 µM
4 | O=S1(=O)CC2(CC(Nc3nccc(-c4sc(C56CC7CC(CC(C7)C5)C6)nc4-c4cccc(NS(=O)(=O)c5c(F)cccc5F)c4F)n3)C2)C1 [Example 6, N-(3-(2-((3r,5r,7r)-adamantan-1-yl)-5-(2-((2,2-dioxido-2-thiaspiro[3.3]heptan-6-yl)amino)pyrimidin-4-yl)thiazol-4-yl)-2-fluorophenyl)-2,6-difluorobenzenesulfonamide] | 0.08 µM
5 | O=S1(=O)CC2(CC(Nc3nccc(-c4sc(C56CC(F)(C5)C6)nc4-c4cccc(NS(=O)(=O)c5c(F)cccc5F)c4F)n3)C2)C1 [Example 7, N-(3-(5-(2-((2,2-dioxido-2-thiaspiro[3.3]heptan-6-yl)amino)pyrimidin-4-yl)-2-(3-fluorobicyclo[1.1.1]pentan-1-yl)thiazol-4-yl)-2-fluorophenyl)-2,6-difluorobenzenesulfonamide] | 0.39 µM
6 | CS(=O)(=O)C1CCC(Nc2nccc(-c3sc(C45CC(Cl)(C4)C5)nc3-c3cccc(NS(=O)(=O)c4c(F)cccc4C(F)(F)F)c3F)n2)CC1 (stereo not drawn) [Example 8, N-(3-(2-(3-chlorobicyclo[1.1.1]pentan-1-yl)-5-(2-(((1s,4s)-4-(methylsulfonyl)cyclohexyl)amino)pyrimidin-4-yl)thiazol-4-yl)-2-fluorophenyl)-2-fluoro-6-(trifluoromethyl)benzenesulfonamide] | 0.24 µM
7 | O=S1(=O)CC2(CC(Nc3nccc(-c4sc(C56CCC(CC5)C6)nc4-c4cccc(NS(=O)(=O)c5c(F)cccc5F)c4F)n3)C2)C1 [Example 9, N-(3-(2-(bicyclo[2.2.1]heptan-1-yl)-5-(2-((2,2-dioxido-2-thiaspiro[3.3]heptan-6-yl)amino)pyrimidin-4-yl)thiazol-4-yl)-2-fluorophenyl)-2,6-difluorobenzenesulfonamide] | 0.1 µM
8 | O=S1(=O)CC2(CC(Nc3nccc(-c4sc(C56CCC(CC5)CC6)nc4-c4cccc(NS(=O)(=O)c5c(F)cccc5F)c4F)n3)C2)C1 [Example 10, N-(3-(2-(bicyclo[2.2.2]octan-1-yl)-5-(2-((2,2-dioxido-2-thiaspiro[3.3]heptan-6-yl)amino)pyrimidin-4-yl)thiazol-4-yl)-2-fluorophenyl)-2,6-difluorobenzenesulfonamide] | 0.055 µM
9 | O=S1(=O)CC2(CC(Nc3nccc(-c4sc(N5C6CCC5CC(F)(F)C6)nc4-c4cccc(NS(=O)(=O)c5c(F)cccc5F)c4F)n3)C2)C1 [Example 12, N-(3-(2-(3,3-difluoro-8-azabicyclo[3.2.1]octan-8-yl)-5-(2-((2,2-dioxido-2-thiaspiro[3.3]heptan-6-yl)amino)pyrimidin-4-yl)thiazol-4-yl)-2-fluorophenyl)-2,6-difluorobenzenesulfonamide] | 0.068 µM
10 | CC(C)(C)OC(=O)N1CCC(C)(c2nc(-c3cccc(NS(=O)(=O)c4c(F)cccc4F)c3F)c(-c3ccnc(NC4CC5(C4)CS(=O)(=O)C5)n3)s2)CC1 [Example 13, tert-butyl 4-(4-(3-((2,6-difluorophenyl)sulfonamido)-2-fluorophenyl)-5-(2-((2,2-dioxido-2-thiaspiro[3.3]heptan-6-yl)amino)pyrimidin-4-yl)thiazol-2-yl)-4-methylpiperidine-1-carboxylate] | 0.73 µM
11 | CC1(c2nc(-c3cccc(NS(=O)(=O)c4c(F)cccc4F)c3F)c(-c3ccnc(NC4CC5(C4)CS(=O)(=O)C5)n3)s2)CCNCC1 [Example 14, N-(3-(5-(2-((2,2-dioxido-2-thiaspiro[3.3]heptan-6-yl)amino)pyrimidin-4-yl)-2-(4-methylpiperidin-4-yl)thiazol-4-yl)-2-fluorophenyl)-2,6-difluorobenzenesulfonamide] | 18.1 µM
12 | CN1CCC(C)(c2nc(-c3cccc(NS(=O)(=O)c4c(F)cccc4F)c3F)c(-c3ccnc(NC4CC5(C4)CS(=O)(=O)C5)n3)s2)CC1 [Example 15, N-(3-(2-(1,4-dimethylpiperidin-4-yl)-5-(2-((2,2-dioxido-2-thiaspiro[3.3]heptan-6-yl)amino)pyrimidin-4-yl)thiazol-4-yl)-2-fluorophenyl)-2,6-difluorobenzenesulfonamide] | 3.2 µM
13 | O=S1(=O)CC2(CC(Nc3nccc(-c4sc(C5(C(F)F)CC5)nc4-c4cccc(NS(=O)(=O)c5c(F)cccc5F)c4F)n3)C2)C1 [Example 16, N-(3-(2-(1-(difluoromethyl)cyclopropyl)-5-(2-((2,2-dioxido-2-thiaspiro[3.3]heptan-6-yl)amino)pyrimidin-4-yl)thiazol-4-yl)-2-fluorophenyl)-2,6-difluorobenzenesulfonamide] | 0.13 µM
14 | O=C1CC2CCC(C1)N2c1nc(-c2cccc(NS(=O)(=O)c3c(F)cccc3F)c2F)c(-c2ccnc(NC3CC4(C3)CS(=O)(=O)C4)n2)s1 [Example 17, N-(3-(5-(2-((2,2-dioxido-2-thiaspiro[3.3]heptan-6-yl)amino)pyrimidin-4-yl)-2-(3-oxo-8-azabicyclo[3.2.1]octan-8-yl)thiazol-4-yl)-2-fluorophenyl)-2,6-difluorobenzenesulfonamide] | 0.48 µM
15 | O=S1(=O)CC2(CC(Nc3nccc(-c4sc(N5CC6CCC5CC6)nc4-c4cccc(NS(=O)(=O)c5c(F)cccc5F)c4F)n3)C2)C1 [Example 18, N-(3-(2-(2-azabicyclo[2.2.2]octan-2-yl)-5-(2-((2,2-dioxido-2-thiaspiro[3.3]heptan-6-yl)amino)pyrimidin-4-yl)thiazol-4-yl)-2-fluorophenyl)-2,6-difluorobenzenesulfonamide] | 0.079 µM
16 | O=S1(=O)CC2(CC(Nc3nccc(-c4sc(N5C6CCCC5CC6)nc4-c4cccc(NS(=O)(=O)c5c(F)cccc5F)c4F)n3)C2)C1 [Example 19, N-(3-(2-(8-azabicyclo[3.2.1]octan-8-yl)-5-(2-((2,2-dioxido-2-thiaspiro[3.3]heptan-6-yl)amino)pyrimidin-4-yl)thiazol-4-yl)-2-fluorophenyl)-2,6-difluorobenzenesulfonamide] | 0.19 µM
17 | O=S1(=O)CC2(CC(Nc3nccc(-c4sc(C56CCC(C5)C6)nc4-c4cccc(NS(=O)(=O)c5c(F)cccc5F)c4F)n3)C2)C1 [Example 20] | 0.24 µM
18 | O=S1(=O)CC2(CC(Nc3nccc(-c4sc(N5CC6CCC(CC6)C5)nc4-c4cccc(NS(=O)(=O)c5c(F)cccc5F)c4F)n3)C2)C1 [Example 21] | 0.24 µM
